Measured values from patent US9067938B2, “Pyrazolopyridinone derivatives as LPA receptor antagonists” (Merck Patent GmbH, priority 2010, dated 2015).

What follows are compounds tested against LPA2 receptor (Homo sapiens, UniProt Q9HBW0) (assay: LPA2R-calciumflux assay). Details: U2OS cells recombinant expressing LPA2R; LPA-induced intracellular calcium signal (FLIPR Tetra); 10 concentrations from 30 uM to 1 nM, 1% DMSO.
Format: cell-based
From the text: Description of the LPA2R Assay
Cell Cultivation/Propagation
LPA2R-calciumflux Assay Protocol
The assay detects intra cellular calcium which is generated by cells upon activation of the LPA2 receptor by its ligand LPA. This transient calcium mobilisation can be monitored using a commercial calcium detection kit (e.g. from Molecular Devices). The main component of such a kit is a dye, which becomes fluorescent when calcium is present—a transient fluorescence signal after laddition of a ligand to a test well are the result. Readers like the FLIPR (from Molecular Devices) can be used to monitor such transient “Ca-flux” signals.
The signals are calculated according to peak maximum minus base line. Compounds which are antogonists of LPA lead to a decreased mobilisation of intracellular calcium and thus to a lower signal. The assay is performed in microplates (384 wells per plate).
The assay itself is run according to the following procedure: • 50 uL seed cells (10000 cells/well in DMEM buffer) • Incubate 24 h at 37° C., 10% CO2 • aspirate medium • 50 uL add calcium dye 1×HBSS/HEPES buffer • incubate 1 h at 37° C. (“loading”) • equilibrate 10 min at RT • 5 uL add compounds in HEPES buffer • shake 10 sec. @ 1000 rpm • incubate 15 min at RT • 20 uL add LPA (in the FLIPR Tetra) in KREBS-Puffer/BSA & measurement
The cells are seeded in DMEM buffer (DMEM, 10% FCS, 10 mM HEPES, 1% Pen/Strep).
Dye loading is done in HBSS/HEPES buffer (100 mL 10×HBSS+20 mL 1M HEPES+880 mL water, pH 7.4)
The LPA is added in Krebs/BSA buffer (120 mM NaCl, 5 mM KCl, 0.62 mM MgSO4, 1.8 mM CaCl2, 10 mM HEPES, 6 mM D(+)-Glucose, 0.2% BSA, pH 7.4).
The compounds are pre-diluted in HEPES buffer (20 mM, pH 7.4), whereby the final DMSO content in the assay is kept at 1%. The compounds are pre-diluted in order to generate dose response series on the microplates. The dose response series consist of 10 concentrations for each compound from 30 uM final to 1 nM final. From all compound wells the resulting signals are referred to control wells (located on each plate besides the compound wells) in terms of % activity.
[formula] From these % activity values—along with the corresponding compound concentrations—IC50 values are fitted for each compound using standard fitting programs such as Graphpad Prism. Here the method “log(inhibitor) vs. response—Variable slope” is used. Reader Settings (FLIPR Tetra) • ExcWLength:470—495 • Em.Wlength: 515—575 • Gain: 50 • Exp. Time: 0,4 • Exc.Intensity: 80 • READ with TF • First read interval: 1,00 s • Number of first reads: 240 • Reads before dispense: 10 • Second read interval: 1,00 s • Number of second reads: 0 • Save Images No

Chain of LPA2 receptor (Q9HBW0 whole entry): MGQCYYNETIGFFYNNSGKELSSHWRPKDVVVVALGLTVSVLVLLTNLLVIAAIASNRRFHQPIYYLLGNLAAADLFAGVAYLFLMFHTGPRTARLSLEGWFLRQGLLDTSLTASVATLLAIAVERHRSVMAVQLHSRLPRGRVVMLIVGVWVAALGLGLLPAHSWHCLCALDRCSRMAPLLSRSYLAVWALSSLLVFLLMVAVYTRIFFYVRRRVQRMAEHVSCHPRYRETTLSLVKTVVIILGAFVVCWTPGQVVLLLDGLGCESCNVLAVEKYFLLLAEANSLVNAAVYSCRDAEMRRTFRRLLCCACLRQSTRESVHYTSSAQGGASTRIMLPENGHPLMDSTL

Compound | IC50
O=C1CC(O)(C(F)(F)F)c2c(-c3cccc(F)c3)n[nH]c2N1 (centres unmarked) [Compound 1, 3-(3-Fluoro-phenyl)-4-hydroxy-4-trifluoromethyl-1,4,5,7-tetrahydro-pyrazolo[3,4-b]pyridin-6-one] | < 1 µM
O=C1CC(O)(C(F)(F)F)c2c(-c3ccccc3)n[nH]c2N1 (centres unmarked) [Compound 2, 4-Hydroxy-3-phenyl-4-trifluoromethyl-1,4,5,7-tetrahydro-pyrazolo[3,4-b]pyridin-6-one] | < 1 µM
COc1ccc(-c2n[nH]c3c2C(O)(C(F)(F)F)CC(=O)N3)cc1 (centres unmarked) [Compound 3, 4-Hydroxy-3-(4-methoxy-phenyl)-4-trifluoromethyl-1,4,5,7-tetrahydro-pyrazolo[3,4-b]pyridin-6-one] | < 1 µM
Cn1nc(-c2ccccc2)c2c1NC(=O)CC2(O)C(F)(F)F (centres unmarked) [Compound 4, 4-Hydroxy-1-methyl-3-phenyl-4-trifluoromethyl-1,4,5,7-tetrahydro-pyrazolo[3,4-b]pyridin-6-one] | > 10 µM
O=C1CC(O)(C(F)(F)F)c2c(-c3ccc(Cl)cc3)n[nH]c2N1 (centres unmarked) [Compound 5, 3-(4-Chloro-phenyl)-4-hydroxy-4-trifluoromethyl-1,4,5,7-tetrahydro-pyrazolo[3,4-b]pyridin-6-one] | 1 to 10 µM
Cc1ccc(-c2n[nH]c3c2C(O)(C(F)(F)F)CC(=O)N3)cc1 (centres unmarked) [Compound 6, 4-Hydroxy-3-p-tolyl-4-trifluoromethyl-1,4,5,7-tetrahydro-pyrazolo[3,4-b]pyridin-6-one] | < 1 µM
Cn1nc(-c2cccs2)c2c1NC(=O)CC2(O)C(F)(F)F (centres unmarked) [Compound 7, 4-Hydroxy-1-methyl-3-thiophen-2-yl-4-trifluoromethyl-1,4,5,7-tetrahydro-pyrazolo[3,4-b]pyridin-6-one] | > 10 µM
O=C1CC(O)(C(F)(F)F)c2c(-c3cccs3)n[nH]c2N1 (centres unmarked) [Compound 8, 4-Hydroxy-3-thiophen-2-yl-4-trifluoromethyl-1,4,5,7-tetrahydro-pyrazolo[3,4-b]pyridin-6-one] | < 1 µM
COc1cc(OC)cc(-c2n[nH]c3c2C(O)(C(F)(F)F)CC(=O)N3)c1 (centres unmarked) [Compound 9, 3-(3,5-Dimethoxy-phenyl)-4-hydroxy-4-trifluoromethyl-1,4,5,7-tetrahydro-pyrazolo[3,4-b]pyridin-6-one] | < 1 µM
O=C1C[C@@](O)(C(F)(F)F)c2c(-c3ccccc3)n[nH]c2N1 [Compound 10, (−)-4-Hydroxy-3-phenyl-4-trifluoromethyl-1,4,5,7-tetrahydro-pyrazolo[3,4-b]pyridin-6-one] | < 1 µM
O=C1C[C@](O)(C(F)(F)F)c2c(-c3ccccc3)n[nH]c2N1 [Compound 11, (+)-4-Hydroxy-3-phenyl-4-trifluoromethyl-1,4,5,7-tetrahydro-pyrazolo[3,4-b]pyridin-6-one] | > 10 µM
O=C1CC(O)(C(F)(F)F)c2c(-c3ccc(Br)cc3)n[nH]c2N1 (centres unmarked) [Compound 12, 3-(4-Bromo-phenyl)-4-hydroxy-4-trifluoromethyl-1,4,5,7-tetrahydro-pyrazolo[3,4-b]pyridin-6-one] | > 10 µM
O=C1CC(O)(C(F)(F)F)c2c(-c3cccc(Br)c3)n[nH]c2N1 (centres unmarked) [Compound 13, 3-(3-Bromo-phenyl)-4-hydroxy-4-trifluoromethyl-1,4,5,7-tetrahydro-pyrazolo[3,4-b]pyridin-6-one] | < 1 µM
O=C1CC(O)(C(F)(F)F)c2c(-c3cccc(Cl)c3)n[nH]c2N1 (centres unmarked) [Compound 14, 3-(3-Chloro-phenyl)-4-hydroxy-4-trifluoromethyl-1,4,5,7-tetrahydro-pyrazolo[3,4-b]pyridin-6-one] | < 1 µM
O=C1CC(O)(C(F)(F)F)c2c(-c3cccc(C(F)(F)F)c3)n[nH]c2N1 (centres unmarked) [Compound 15, 4-Hydroxy-4-trifluoromethyl-3-(3-trifluoromethyl-phenyl)-1,4,5,7-tetrahydro-pyrazolo[3,4-b]pyridin-6-one] | < 1 µM
O=C1CC(O)(C(F)(F)F)c2c(C3CC3)n[nH]c2N1 (centres unmarked) [Compound 16, 3-Cyclopropyl-4-hydroxy-4-trifluoromethyl-1,4,5,7-tetrahydro-pyrazolo[3,4-b]pyridin-6-one] | > 10 µM
O=C1CC(O)(C(F)(F)F)c2c(-c3ccc(F)cc3)n[nH]c2N1 (centres unmarked) [Compound 17, 3-(4-Fluoro-phenyl)-4-hydroxy-4-trifluoromethyl-1,4,5,7-tetrahydro-pyrazolo[3,4-b]pyridin-6-one] | < 1 µM
Cn1nc(-c2ccc(Cl)cc2)c2c1NC(=O)CC2(O)C(F)(F)F (centres unmarked) [Compound 18, 3(4-Chloro-phenyl)-4-hydroxy-1-methyl-4-trifluoromethyl-1,4,5,7-tetrahydro-pyrazolo[3,4-b]pyridin-6-one] | > 10 µM
O=C1CC(O)(C(F)(F)F)c2c(-c3ccccc3)nn(-c3ccccc3)c2N1 (centres unmarked) [Compound 19, 4-Hydroxy-1,3-diphenyl-4-trifluoromethyl-1,4,5,7-tetrahydro-pyrazolo[3,4-b]pyridin-6-one] | > 10 µM
O=C1C[C@@](O)(C(F)(F)F)c2c(-c3cccc(F)c3)n[nH]c2N1 [Compound 20, (−)-3-(3-Fluoro-phenyl)-4-hydroxy-4-trifluoromethyl-1,4,5,7-tetrahydro-pyrazolo[3,4-b]pyridin-6-one] | < 1 µM
O=C1C[C@](O)(C(F)(F)F)c2c(-c3cccc(F)c3)n[nH]c2N1 [Compound 21, (+)-3-(3-Fluoro-phenyl)-4-hydroxy-4-trifluoromethyl-1,4,5,7-tetrahydro-pyrazolo[3,4-b]pyridin-6-one] | > 10 µM
O=C1CC(O)(C(F)(F)F)c2c(-c3ccncc3)n[nH]c2N1 (centres unmarked) [Compound 22, 4-Hydroxy-3-pyridin-4-yl-4-trifluoromethyl-1,4,5,7-tetrahydro-pyrazolo[3,4-b]pyridin-6-one] | < 1 µM
CC1C(=O)Nc2[nH]nc(-c3ccccc3)c2C1(O)C(F)(F)F (centres unmarked) [Compound 24, 4-Hydroxy-5-methyl-3-phenyl-4-trifluoromethyl-1,4,5,7-tetrahydro-pyrazolo[3,4-b]pyridin-6-one] | 1 to 10 µM
CCC1C(=O)Nc2[nH]nc(-c3ccccc3)c2C1(O)C(F)(F)F (centres unmarked) [Compound 25, 4-Hydroxy-5-ethyl-3-phenyl-4-trifluoromethyl-1,4,5,7-tetrahydro-pyrazolo[3,4-b]pyridin-6-one] | > 10 µM
O=C1Nc2[nH]nc(-c3ccccc3)c2C(O)(C(F)(F)F)C1CCO (centres unmarked) [Compound 26, 4-Hydroxy-5-(2-hydroxy-ethyl)-3-phenyl-4-trifluoromethyl-1,4,5,7-tetrahydro-pyrazolo[3,4-b]pyridin-6-one] | > 10 µM
COC1C(=O)Nc2[nH]nc(-c3ccccc3)c2C1(O)C(F)(F)F (centres unmarked) [Compound 27, 4-Hydroxy-5-methoxy-3-phenyl-4-trifluoromethyl-1,4,5,7-tetrahydro-pyrazolo[3,4-b]pyridin-6-one] | > 10 µM
O=C1CC(O)(C(F)(F)F)c2c(Cc3ccccc3)n[nH]c2N1 (centres unmarked) [Compound 28, 3-Benzyl-4-hydroxy-4-trifluoromethyl-1,4,5,7-tetrahydro-pyrazolo[3,4-b]pyridin-6-one] | > 10 µM
O=C1CC(O)(C(F)(F)F)c2c(-c3c[nH]c4ccccc34)n[nH]c2N1 (centres unmarked) [Compound 29, 4-Hydroxy-3-(1H-indol-3-yl)-4-trifluoromethyl-1,4,5,7-tetrahydro-pyrazolo[3,4-b]pyridin-6-one] | > 10 µM
O=C1CC(O)(C(F)(F)F)c2c(-c3ccco3)n[nH]c2N1 (centres unmarked) [Compound 30, 3-Furan-2-yl-4-hydroxy-4-trifluoromethyl-1,4,5,7-tetrahydro-pyrazolo[3,4-b]pyridin-6-one] | > 10 µM
